Measurements from article PMC5622171 (Nature Communications, 2017).

Experiments:
CYP3A4 = CYP3A4 protein levels in primary human hepatocytes (western blot); assay type: cell-based
Protocol: Cells were rinsed once with cold PBS then lysed in RIPA lysis buffer (Thermo Fisher Scientific) containing protease inhibitor (Roche). Mouse liver samples were homogenized in 500 μl of cold RIPA lysis buffer in a Bullet Blender Blue homogenizer (Next Advance, Averill Park, NY). Then, 25 μg of total protein lysates were loaded onto NuPAGE 4%–12% Bis-Tris gels (Invitrogen) with NuPAGE MES SDS running buffer (Invitrogen). The proteins were transferred from the gel to a nitrocellulose membrane by using the iBlot gel-transfer system (Invitrogen). The membrane was then blocked for 1 h with Odyssey Blocking Buffer (LI-COR Biosciences, Lincoln, NE) and probed with mouse monoclonal antibodies against CYP3A4 (K03; stock concentration: 2.5 mg ml^−1, diluted 1:5000)[51], MDR1 (D-11; Cat. No. sc-55510, Santa Cruz Biotechnology, Santa Cruz, CA; stock concentration: 0.2 mg ml^−1, diluted 1:1500), hPXR (H-11; Cat. No. sc-48340, Santa Cruz Biotechnology; stock concentration: 0.2 mg ml^−1, diluted 1:400), mouse Cyp3a (Cat. No. MAB10041, Millipore, Temecula, CA; Lot No. 1957980, diluted 1:1000), or β-actin (Cat. No. A5441, Sigma; Lot No. 043M4840V, diluted 1:5000). […] The relative intensity of each protein band was then determined by normalizing the intensity of each protein band to that of actin. […]

KIT = target: T1, KIT (Homo sapiens, UniProt P10721); test: KINOMEscan kinase profiling; assay type: binding
T1 construct: purchased Ambit Biosciences, now part of DiscoveryX
T1 sequence (P10721 26-976): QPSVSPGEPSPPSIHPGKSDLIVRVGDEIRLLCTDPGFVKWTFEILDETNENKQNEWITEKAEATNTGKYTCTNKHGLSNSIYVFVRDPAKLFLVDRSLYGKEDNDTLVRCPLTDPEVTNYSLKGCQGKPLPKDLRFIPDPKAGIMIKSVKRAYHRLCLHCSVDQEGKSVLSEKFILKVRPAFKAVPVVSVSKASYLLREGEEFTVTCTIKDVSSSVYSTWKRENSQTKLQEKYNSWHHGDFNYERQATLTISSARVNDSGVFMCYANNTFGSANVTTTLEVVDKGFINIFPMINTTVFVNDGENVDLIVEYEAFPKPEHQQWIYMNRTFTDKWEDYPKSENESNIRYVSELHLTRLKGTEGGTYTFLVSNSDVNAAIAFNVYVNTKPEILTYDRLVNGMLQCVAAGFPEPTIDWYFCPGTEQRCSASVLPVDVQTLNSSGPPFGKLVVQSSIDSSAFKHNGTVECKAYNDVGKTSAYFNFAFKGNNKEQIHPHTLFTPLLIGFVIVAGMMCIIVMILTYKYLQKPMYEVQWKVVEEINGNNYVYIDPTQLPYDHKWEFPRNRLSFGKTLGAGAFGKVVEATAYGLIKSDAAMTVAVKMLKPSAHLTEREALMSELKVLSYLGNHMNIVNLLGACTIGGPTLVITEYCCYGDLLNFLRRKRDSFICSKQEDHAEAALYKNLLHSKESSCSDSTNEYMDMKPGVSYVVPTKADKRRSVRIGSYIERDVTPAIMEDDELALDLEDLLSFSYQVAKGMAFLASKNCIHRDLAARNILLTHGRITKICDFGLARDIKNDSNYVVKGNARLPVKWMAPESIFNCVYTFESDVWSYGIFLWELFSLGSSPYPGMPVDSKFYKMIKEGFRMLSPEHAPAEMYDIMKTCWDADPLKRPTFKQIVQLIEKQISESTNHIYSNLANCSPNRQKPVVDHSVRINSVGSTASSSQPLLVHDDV
Protocol: (§1) Kinase inhibition profiling assays. The kinase inhibition profiling assay (KINOMEscan) was performed by Ambit Biosciences, now part of DiscoveryX (Fremont, CA) in accordance with the […]
(§2) published protocol20, 21. […] If the inhibition of a kinase was greater […]
(§3) dilutions) starting from 30 µM.

HCK = target: T2, HCK (Homo sapiens, UniProt P08631); test: KINOMEscan kinase profiling; assay type: binding; conditions: read-out: %Inhibition by 10 μM SPA70
T2 construct: purchased DiscoverX (Ambit Biosciences) KINOMEscan
Protocol: as §1, §2, §3

EGFR = target: T3, EGFR (Homo sapiens, UniProt P00533); test: KINOMEscan kinase profiling; assay type: binding
T3 construct: purchased DiscoverX (Ambit Biosciences) KINOMEscan
Protocol: as §1, §2, §3

GRK4 = target: T4, GRK4 (Homo sapiens, UniProt P32298); test: KINOMEscan kinase profiling; assay type: binding; conditions: read-out: %Inhibition by 10 μM SPA70
T4 construct: purchased DiscoverX (Ambit Biosciences) KINOMEscan
Protocol: as §1, §2, §3

PAK4 = target: T5, PAK4 (Homo sapiens, UniProt O96013); test: KINOMEscan kinase profiling; assay type: binding; conditions: read-out: %Inhibition by 10 μM SPA70
T5 construct: purchased DiscoverX (Ambit Biosciences) KINOMEscan
T5 sequence (O96013 whole entry): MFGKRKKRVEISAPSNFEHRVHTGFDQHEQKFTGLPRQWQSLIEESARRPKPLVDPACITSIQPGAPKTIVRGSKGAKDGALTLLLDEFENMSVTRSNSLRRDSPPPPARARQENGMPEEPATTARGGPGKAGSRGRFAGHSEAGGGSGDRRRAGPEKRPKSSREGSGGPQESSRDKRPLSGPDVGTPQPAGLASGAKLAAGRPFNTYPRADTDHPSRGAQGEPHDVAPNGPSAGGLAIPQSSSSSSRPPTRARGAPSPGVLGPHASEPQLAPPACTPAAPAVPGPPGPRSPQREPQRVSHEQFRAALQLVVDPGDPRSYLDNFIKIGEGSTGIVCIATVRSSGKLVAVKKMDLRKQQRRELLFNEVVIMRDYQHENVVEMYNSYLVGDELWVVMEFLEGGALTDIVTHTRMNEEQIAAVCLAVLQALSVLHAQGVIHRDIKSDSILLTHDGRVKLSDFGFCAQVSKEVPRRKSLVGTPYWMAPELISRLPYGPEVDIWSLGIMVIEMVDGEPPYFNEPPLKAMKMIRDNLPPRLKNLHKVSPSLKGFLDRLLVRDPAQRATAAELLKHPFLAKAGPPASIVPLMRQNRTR
Protocol: as §1, §2, §3

IKK-beta = target: T6, IKK-beta (Homo sapiens, UniProt O14920); test: KINOMEscan kinase profiling; assay type: binding; conditions: read-out: %Inhibition by 10 μM SPA70
T6 construct: purchased DiscoverX (Ambit Biosciences) KINOMEscan
Protocol: as §1, §2, §3

RIPK1 = target: T7, RIPK1 (Homo sapiens, UniProt Q13546); test: KINOMEscan kinase profiling; assay type: binding; conditions: read-out: %Inhibition by 10 μM SPA70
T7 construct: purchased DiscoverX (Ambit Biosciences) KINOMEscan
Protocol: as §1, §2, §3

NIM1 = target: T8, NIM1 (Homo sapiens, UniProt Q8IY84); test: KINOMEscan kinase profiling; assay type: binding; conditions: read-out: %Inhibition by 10 μM SPA70
T8 construct: purchased DiscoverX (Ambit Biosciences) KINOMEscan
Protocol: as §1, §2, §3

CAMK2G = target: T9, CAMK2G (Homo sapiens, UniProt Q13555); test: KINOMEscan kinase profiling; assay type: binding; conditions: read-out: %Inhibition by 10 μM SPA70
T9 construct: purchased DiscoverX (Ambit Biosciences) KINOMEscan
Protocol: as §1, §2, §3

SRPK3 = target: T10, SRPK3 (Homo sapiens, UniProt Q9UPE1); test: KINOMEscan kinase profiling; assay type: binding; conditions: read-out: %Inhibition by 10 μM SPA70
T10 construct: purchased DiscoverX (Ambit Biosciences) KINOMEscan
Protocol: as §1, §2, §3

[1] = target: T11, RPS6KA5(Kin.Dom.1-N-terminal) (Homo sapiens, UniProt O75582); test: KINOMEscan kinase profiling; assay type: binding; conditions: read-out: %Inhibition by 10 μM SPA70
T11 construct: RPS6KA5(Kin.Dom.1-N-terminal); purchased DiscoverX (Ambit Biosciences) KINOMEscan
T11 sequence (O75582 1-387 limits assumed): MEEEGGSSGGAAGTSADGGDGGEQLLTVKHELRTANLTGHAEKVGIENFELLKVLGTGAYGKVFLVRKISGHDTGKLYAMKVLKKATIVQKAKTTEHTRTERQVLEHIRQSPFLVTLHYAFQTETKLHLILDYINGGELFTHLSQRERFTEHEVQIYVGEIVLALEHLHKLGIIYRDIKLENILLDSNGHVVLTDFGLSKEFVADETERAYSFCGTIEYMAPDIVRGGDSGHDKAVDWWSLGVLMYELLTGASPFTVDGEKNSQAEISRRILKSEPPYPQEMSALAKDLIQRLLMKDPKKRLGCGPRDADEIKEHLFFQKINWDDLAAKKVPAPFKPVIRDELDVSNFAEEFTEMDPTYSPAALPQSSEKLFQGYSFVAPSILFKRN
Protocol: as §1, §2, §3

YSK1 = target: T12, YSK1 (Homo sapiens, UniProt O00506); test: KINOMEscan kinase profiling; assay type: binding; conditions: read-out: %Inhibition by 10 μM SPA70
T12 construct: purchased DiscoverX (Ambit Biosciences) KINOMEscan
Protocol: as §1, §2, §3

RIOK1 = target: T13, RIOK1 (Homo sapiens, UniProt Q9BRS2); test: KINOMEscan kinase profiling; assay type: binding; conditions: read-out: %Inhibition by 10 μM SPA70
T13 construct: purchased DiscoverX (Ambit Biosciences) KINOMEscan
Protocol: as §1, §2, §3

[2] = target: T14, RPS6KA4(Kin.Dom.2-C-terminal) (Homo sapiens, UniProt O75676); test: KINOMEscan kinase profiling; assay type: binding; conditions: read-out: %Inhibition by 10 μM SPA70
T14 construct: RPS6KA4(Kin.Dom.2-C-terminal); purchased DiscoverX (Ambit Biosciences) KINOMEscan
Protocol: as §1, §2, §3

MAP4K4 = target: T15, MAP4K4 (Homo sapiens, UniProt O95819); test: KINOMEscan kinase profiling; assay type: binding; conditions: read-out: %Inhibition by 10 μM SPA70
T15 construct: purchased DiscoverX (Ambit Biosciences) KINOMEscan
T15 sequence (O95819 whole entry): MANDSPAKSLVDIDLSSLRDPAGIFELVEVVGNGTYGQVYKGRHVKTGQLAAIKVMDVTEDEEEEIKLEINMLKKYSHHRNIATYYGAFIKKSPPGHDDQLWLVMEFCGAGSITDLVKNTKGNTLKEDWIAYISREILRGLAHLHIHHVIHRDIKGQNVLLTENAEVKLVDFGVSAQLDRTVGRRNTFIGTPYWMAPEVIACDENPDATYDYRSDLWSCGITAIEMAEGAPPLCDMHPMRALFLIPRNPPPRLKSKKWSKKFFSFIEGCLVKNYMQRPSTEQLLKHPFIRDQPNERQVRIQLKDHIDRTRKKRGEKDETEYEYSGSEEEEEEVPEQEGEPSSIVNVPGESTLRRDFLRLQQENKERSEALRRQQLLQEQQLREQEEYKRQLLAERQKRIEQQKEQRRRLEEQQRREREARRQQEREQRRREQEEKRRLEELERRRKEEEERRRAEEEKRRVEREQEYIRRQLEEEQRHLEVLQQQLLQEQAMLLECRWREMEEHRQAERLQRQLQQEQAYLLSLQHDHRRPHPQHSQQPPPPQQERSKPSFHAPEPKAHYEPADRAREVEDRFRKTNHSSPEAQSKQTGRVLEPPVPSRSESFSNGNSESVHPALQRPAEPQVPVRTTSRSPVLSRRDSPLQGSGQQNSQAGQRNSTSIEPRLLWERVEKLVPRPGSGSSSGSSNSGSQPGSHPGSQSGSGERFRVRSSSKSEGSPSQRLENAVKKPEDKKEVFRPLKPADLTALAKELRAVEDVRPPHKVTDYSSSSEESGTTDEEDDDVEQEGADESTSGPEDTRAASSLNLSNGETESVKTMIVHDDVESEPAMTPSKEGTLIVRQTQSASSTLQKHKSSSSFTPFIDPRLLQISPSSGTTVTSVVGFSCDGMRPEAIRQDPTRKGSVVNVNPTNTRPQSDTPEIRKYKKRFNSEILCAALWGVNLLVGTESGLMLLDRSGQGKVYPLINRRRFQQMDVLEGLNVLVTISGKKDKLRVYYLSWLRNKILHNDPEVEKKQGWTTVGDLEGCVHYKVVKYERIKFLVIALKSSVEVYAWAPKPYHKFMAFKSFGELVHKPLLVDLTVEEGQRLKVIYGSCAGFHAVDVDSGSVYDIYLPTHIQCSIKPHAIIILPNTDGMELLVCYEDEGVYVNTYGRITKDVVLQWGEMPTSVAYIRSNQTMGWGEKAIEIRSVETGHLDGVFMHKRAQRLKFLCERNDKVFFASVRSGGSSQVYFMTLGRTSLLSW
Protocol: as §1, §2, §3

TAOK2 = target: T16, TAOK2 (Homo sapiens, UniProt Q9UL54); test: KINOMEscan kinase profiling; assay type: binding; conditions: read-out: %Inhibition by 10 μM SPA70
T16 construct: purchased DiscoverX (Ambit Biosciences) KINOMEscan
Protocol: as §1, §2, §3

STK33 = target: T17, STK33 (Homo sapiens, UniProt Q9BYT3); test: KINOMEscan kinase profiling; assay type: binding; conditions: read-out: %Inhibition by 10 μM SPA70
T17 construct: purchased DiscoverX (Ambit Biosciences) KINOMEscan
T17 sequence (Q9BYT3 whole entry): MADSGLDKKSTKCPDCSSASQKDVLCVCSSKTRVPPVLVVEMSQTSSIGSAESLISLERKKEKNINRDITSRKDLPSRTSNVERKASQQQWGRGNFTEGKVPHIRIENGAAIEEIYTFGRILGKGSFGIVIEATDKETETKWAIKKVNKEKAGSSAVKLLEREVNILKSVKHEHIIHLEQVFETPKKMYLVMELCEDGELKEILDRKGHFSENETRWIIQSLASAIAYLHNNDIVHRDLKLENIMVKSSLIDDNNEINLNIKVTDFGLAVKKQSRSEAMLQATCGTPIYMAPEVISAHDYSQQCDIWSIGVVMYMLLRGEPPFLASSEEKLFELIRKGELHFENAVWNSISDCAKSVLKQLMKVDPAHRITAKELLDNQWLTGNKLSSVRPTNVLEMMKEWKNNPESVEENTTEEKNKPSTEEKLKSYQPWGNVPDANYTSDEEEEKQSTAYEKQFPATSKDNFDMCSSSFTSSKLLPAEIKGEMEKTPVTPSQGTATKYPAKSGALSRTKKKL
Protocol: as §1, §2, §3

TLK1 = target: T18, TLK1 (Homo sapiens, UniProt Q9UKI8); test: KINOMEscan kinase profiling; assay type: binding; conditions: read-out: %Inhibition by 10 μM SPA70
T18 construct: purchased DiscoverX (Ambit Biosciences) KINOMEscan
Protocol: as §1, §2, §3

WEE1 = target: T19, WEE1 (Homo sapiens, UniProt P30291); test: KINOMEscan kinase profiling; assay type: binding; conditions: read-out: %Inhibition by 10 μM SPA70
T19 construct: purchased DiscoverX (Ambit Biosciences) KINOMEscan
Protocol: as §1, §2, §3

TRKA = target: T20, TRKA (Homo sapiens, UniProt P04629); test: KINOMEscan kinase profiling; assay type: binding; conditions: read-out: %Inhibition by 10 μM SPA70
T20 construct: purchased DiscoverX (Ambit Biosciences) KINOMEscan
T20 sequence (P04629 33-796): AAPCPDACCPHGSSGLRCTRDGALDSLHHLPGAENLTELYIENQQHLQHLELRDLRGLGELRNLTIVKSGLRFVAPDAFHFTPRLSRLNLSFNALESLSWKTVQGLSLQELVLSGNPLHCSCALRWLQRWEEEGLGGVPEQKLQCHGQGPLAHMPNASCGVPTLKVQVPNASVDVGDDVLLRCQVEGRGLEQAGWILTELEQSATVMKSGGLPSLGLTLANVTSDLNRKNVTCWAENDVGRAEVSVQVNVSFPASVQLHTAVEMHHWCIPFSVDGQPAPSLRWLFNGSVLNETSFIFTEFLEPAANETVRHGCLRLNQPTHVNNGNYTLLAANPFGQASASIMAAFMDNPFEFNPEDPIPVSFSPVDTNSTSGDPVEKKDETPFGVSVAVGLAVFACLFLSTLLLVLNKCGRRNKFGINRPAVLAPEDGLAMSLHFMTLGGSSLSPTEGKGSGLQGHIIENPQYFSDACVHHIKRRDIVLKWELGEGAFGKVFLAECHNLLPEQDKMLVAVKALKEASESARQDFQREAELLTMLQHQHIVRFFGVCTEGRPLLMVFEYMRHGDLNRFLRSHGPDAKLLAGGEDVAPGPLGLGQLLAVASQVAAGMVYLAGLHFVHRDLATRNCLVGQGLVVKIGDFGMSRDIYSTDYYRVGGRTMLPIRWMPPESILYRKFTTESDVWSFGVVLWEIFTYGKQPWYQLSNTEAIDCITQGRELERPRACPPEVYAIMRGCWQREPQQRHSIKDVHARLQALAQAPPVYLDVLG
Protocol: as §1, §2, §3

TLK2 = target: T21, TLK2 (Homo sapiens, UniProt Q86UE8); test: KINOMEscan kinase profiling; assay type: binding; conditions: read-out: %Inhibition by 10 μM SPA70
T21 construct: purchased DiscoverX (Ambit Biosciences) KINOMEscan
Protocol: as §1, §2, §3

NEK4 = target: T22, NEK4 (Homo sapiens, UniProt P51957); test: KINOMEscan kinase profiling; assay type: binding; conditions: read-out: %Inhibition by 10 μM SPA70
T22 construct: purchased DiscoverX (Ambit Biosciences) KINOMEscan
Protocol: as §1, §2, §3

TESK1 = target: T23, TESK1 (Homo sapiens, UniProt Q15569); test: KINOMEscan kinase profiling; assay type: binding; conditions: read-out: %Inhibition by 10 μM SPA70
T23 construct: purchased DiscoverX (Ambit Biosciences) KINOMEscan
T23 sequence (Q15569 whole entry): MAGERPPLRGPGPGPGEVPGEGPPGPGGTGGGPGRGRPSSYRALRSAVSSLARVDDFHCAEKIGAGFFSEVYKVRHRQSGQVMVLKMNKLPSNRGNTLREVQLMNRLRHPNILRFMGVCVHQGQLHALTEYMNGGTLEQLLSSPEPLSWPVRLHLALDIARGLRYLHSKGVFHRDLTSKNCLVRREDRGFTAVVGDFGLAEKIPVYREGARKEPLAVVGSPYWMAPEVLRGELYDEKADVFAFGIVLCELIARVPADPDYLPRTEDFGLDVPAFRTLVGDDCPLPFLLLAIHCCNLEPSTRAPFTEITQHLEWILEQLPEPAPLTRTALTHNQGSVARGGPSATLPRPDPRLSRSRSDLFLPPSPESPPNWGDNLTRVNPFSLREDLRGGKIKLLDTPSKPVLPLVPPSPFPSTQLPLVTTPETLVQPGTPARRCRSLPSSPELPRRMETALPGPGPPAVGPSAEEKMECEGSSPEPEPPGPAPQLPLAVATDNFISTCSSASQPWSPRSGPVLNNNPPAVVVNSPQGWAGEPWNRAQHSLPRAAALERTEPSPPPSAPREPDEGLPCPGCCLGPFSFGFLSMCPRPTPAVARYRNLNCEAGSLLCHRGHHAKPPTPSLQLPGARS
Protocol: as §1, §2, §3

FLT3 = target: T24, FLT3 (Homo sapiens, UniProt P36888); test: KINOMEscan kinase profiling; assay type: binding; conditions: read-out: %Inhibition by 10 μM SPA70
T24 construct: purchased DiscoverX (Ambit Biosciences) KINOMEscan
Protocol: as §1, §2, §3

SGK3 = target: T25, SGK3 (Homo sapiens, UniProt Q96BR1); test: KINOMEscan kinase profiling; assay type: binding; conditions: read-out: %Inhibition by 10 μM SPA70
T25 construct: purchased DiscoverX (Ambit Biosciences) KINOMEscan
Protocol: as §1, §2, §3

## COc1ccc(OC)c(-n2nnc(S(=O)(=O)c3ccc(C(C)(C)C)cc3)c2C)c1 [SPA70]
CYP3A4; 2.5 μM SPA70, 0.1 μM SR12813 or 0.03 μM T090137, 48 h
  Effect on CYP3A4 induction by SR12813 and T090137: able to block the CYP3A4-inducing effect
CYP3A4; 2.5 μM SPA70, 1 μM rifampicin, 48 h
  Effect on CYP3A4 induction by rifampicin: substantially blocked
KIT; 11-point 3-fold serial dilutions starting from 30 µM
  Kd: 2500 nM
KIT; read-out: %Inhibition by 10 μM SPA70
  inhibition at 10 µM: 83%
HCK
  inhibition at 10 µM: 9%
EGFR
  %Inhibition by 10 μM SPA70: 0%
GRK4
  inhibition at 10 µM: 0%
PAK4
  inhibition at 10 µM: 0%
IKK-beta
  inhibition at 10 µM: 26%
RIPK1
  inhibition at 10 µM: 0%
NIM1
  inhibition at 10 µM: 4%
CAMK2G
  inhibition at 10 µM: 1%
SRPK3
  inhibition at 10 µM: 0%
[1]
  inhibition at 10 µM: 14%
YSK1
  inhibition at 10 µM: 2%
RIOK1
  inhibition at 10 µM: 47%
[2]
  inhibition at 10 µM: 0%
MAP4K4
  inhibition at 10 µM: 0%
TAOK2
  inhibition at 10 µM: 21%
STK33
  inhibition at 10 µM: 0%
TLK1
  inhibition at 10 µM: 23%
WEE1
  inhibition at 10 µM: 0%
TRKA
  inhibition at 10 µM: 0%
TLK2
  inhibition at 10 µM: 0%
NEK4
  inhibition at 10 µM: 21%
TESK1
  inhibition at 10 µM: 0%
FLT3
  inhibition at 10 µM: 0%
SGK3
  inhibition at 10 µM: 0%
